Active and inactive are the calls of the source. No cut-off for these calls is given here.
Key:
Acetylcholinesterase = Acetylcholinesterase (Electrophorus electricus, UniProt O42275); experiment: Inhibition of Electrophorus electricus (electric eel) acetylcholinesterase (AChE) using acetylthiocholine iodide substrate by Ellman method based colorimetry
[1] = molecular target: Acetylcholinesterase (Electrophorus electricus) (UniProt O42275); experiment: Reversible inhibition of Electrophorus electricus (electric eel)acetylcholinesterase (AChE) using acetylthiocholine iodide substrate by Ellman method based colorimetry
[2] = molecular target: Acetylcholinesterase (Electrophorus electricus) (UniProt O42275); experiment: Mixed type inhibition of Electrophorus electricus (electric eel) acetylcholinesteraseAChE using acetylthiocholine iodide substrate by Ellman method based colorimetry
[3] = molecular target: Acetylcholinesterase (Electrophorus electricus) (UniProt O42275); experiment: Inhibition of Electrophorus electricus (electric eel) acetylcholinesterase (AChE) at 100 mM using 10 mM acetylthiocholine iodide substrate after 15 min by Ellman method based colorimetry
[4] = molecular target: Acetylcholinesterase (Electrophorus electricus) (UniProt O42275); experiment: Inhibition of Electrophorus electricus (electric eel) acetylcholinesterase (AChE) at 10 mM using 2 mM acetylthiocholine iodide substrate after 15 min by Ellman method based colorimetry
[5] = molecular target: Acetylcholinesterase (Electrophorus electricus) (UniProt O42275); experiment: Competitive inhibition of Electrophorus electricus (electric eel) acetylcholinesterase (AChE) using acetylthiocholine iodide substrate by Ellman method based colorimetry
[6] = molecular target: Acetylcholinesterase (Electrophorus electricus) (UniProt O42275); experiment: Inhibition of Electrophorus electricus (electric eel) acetylcholinesterase (AChE) at 1 mM using 1 mM acetylthiocholine iodide substrate after 15 min by Ellman method based colorimetry
[7] = molecular target: Acetylcholinesterase (Electrophorus electricus) (UniProt O42275); experiment: Inhibition of Electrophorus electricus (electric eel) acetylcholinesterase (AChE) at 50 mM using 5 mM acetylthiocholine iodide substrate after 15 min by Ellman method based colorimetry

Acetylcholinesterase (Electrophorus electricus), sequence (O42275 24-633 limits assumed): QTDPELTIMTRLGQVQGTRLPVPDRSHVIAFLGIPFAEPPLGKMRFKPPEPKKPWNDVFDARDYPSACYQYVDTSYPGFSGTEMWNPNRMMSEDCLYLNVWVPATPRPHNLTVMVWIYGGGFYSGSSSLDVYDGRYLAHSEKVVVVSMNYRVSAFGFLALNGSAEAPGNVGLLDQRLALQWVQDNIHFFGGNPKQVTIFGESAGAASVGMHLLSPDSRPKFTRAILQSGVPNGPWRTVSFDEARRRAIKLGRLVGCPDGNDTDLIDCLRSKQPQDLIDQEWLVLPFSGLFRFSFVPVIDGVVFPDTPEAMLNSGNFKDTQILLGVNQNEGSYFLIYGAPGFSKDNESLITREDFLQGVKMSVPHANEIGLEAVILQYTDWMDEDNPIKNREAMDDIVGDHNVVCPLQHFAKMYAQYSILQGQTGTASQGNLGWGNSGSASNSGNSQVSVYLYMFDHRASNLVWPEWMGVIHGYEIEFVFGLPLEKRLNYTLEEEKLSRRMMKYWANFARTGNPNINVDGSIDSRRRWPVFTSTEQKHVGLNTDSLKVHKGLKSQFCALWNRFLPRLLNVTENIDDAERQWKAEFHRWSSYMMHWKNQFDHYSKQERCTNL
Acetylcholinesterase, sequence (O42275 whole entry): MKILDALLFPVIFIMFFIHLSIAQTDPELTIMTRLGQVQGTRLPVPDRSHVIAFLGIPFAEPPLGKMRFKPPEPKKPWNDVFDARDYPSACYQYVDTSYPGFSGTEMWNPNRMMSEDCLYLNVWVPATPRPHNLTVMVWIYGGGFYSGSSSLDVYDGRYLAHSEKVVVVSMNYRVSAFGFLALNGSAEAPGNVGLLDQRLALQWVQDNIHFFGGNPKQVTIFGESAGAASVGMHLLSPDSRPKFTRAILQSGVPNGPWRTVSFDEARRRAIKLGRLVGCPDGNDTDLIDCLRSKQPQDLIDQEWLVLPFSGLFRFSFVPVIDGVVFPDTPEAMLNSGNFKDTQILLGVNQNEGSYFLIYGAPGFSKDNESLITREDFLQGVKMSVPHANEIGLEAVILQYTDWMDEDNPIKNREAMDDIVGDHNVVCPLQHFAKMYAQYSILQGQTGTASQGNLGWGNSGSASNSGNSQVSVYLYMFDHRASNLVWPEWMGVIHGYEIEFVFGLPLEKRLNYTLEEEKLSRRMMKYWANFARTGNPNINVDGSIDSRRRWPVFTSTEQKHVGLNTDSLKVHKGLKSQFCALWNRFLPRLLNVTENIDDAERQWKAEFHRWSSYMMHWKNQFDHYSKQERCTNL

`C=C(C)[C@H]1CC=C(C)C(=O)C1` [(S)(+)CARVONE] was tested, and the Ki (Acetylcholinesterase; read-out: Ki) was 300 µM, the inhibition [1] was “Active” and the inhibition [2] was “Active”.
`C/C=C/c1ccc(OC)cc1` [ANETHOLE] was tested, and the Ki (Acetylcholinesterase) was “Not Active” and the inhibition [1] was “Active”.
`CC12CCC(CC1=O)C2(C)C` (configuration not stated) [CAMPHOR] was tested, and the Ki (Acetylcholinesterase; read-out: Ki) was 50 µM, the inhibition [1] was “Active” and the inhibition [2] was “Active”.
With `C=CCc1ccc(OC)cc1` [ESTRAGOLE] the Ki (Acetylcholinesterase; read-out: Ki) was 150 µM, the inhibition [1] was “Active” and the inhibition [2] was “Active”.
In the case of `CC12CCC(C1)C(C)(C)C2=O` (configuration not stated) [FENCHONE], the inhibition [3] is reported as 90.7%, the inhibition [4] is reported as 79.8% and the inhibition [5] is reported as “Active”. For the same compound, the inhibition [6] was 53.8%, the Ki (Acetylcholinesterase; read-out: Ki) was 400 µM and the inhibition [1] was “Active”. For the same compound, the inhibition [7] was 84.1%.
For `CC1=CCC(C(C)C)=CC1` [GAMMA-TERPINENE], the inhibition [5] was “Active”, the Ki (Acetylcholinesterase; read-out: Ki) was 200 µM and the inhibition [1] was “Active”.
With `CC(C)=CCC/C(C)=C/CO` [GERANIOL] the inhibition [5] was “Active”, the Ki (Acetylcholinesterase; read-out: Ki) was 100 µM and the inhibition [1] was “Active”.
For `C=CC(C)(O)CCC=C(C)C` (configuration not stated) [LINALOOL], the inhibition [5] was “Active”, the Ki (Acetylcholinesterase; read-out: Ki) was 300 µM and the inhibition [1] was “Active”.

Source: ChEMBL document CHEMBL3045849, “Mode of inhibition of acetylcholinesterase by monoterpenoids and implications for pest control” (Ind Crops Prod, 2010)
